From US5382525A, “Method of effecting increased performance of diagnostic enzyme reaction systems using noble gases” (American Air Liquide, priority 1992, dated 1995)

What was measured:
[1] = target: T1, Alcohol dehydrogenase EC 1.1.1.1 (Saccharomyces cerevisiae, UniProt P00330); test: Alcohol [Ethanol] Diagnostic Kit Sigma No. 332-UV gas run; format: biochemical, yeast; conditions: relative to air
T1 construct: purchased Sigma 330-1; host or cells: yeast
T1 sequence (P00330 1-348): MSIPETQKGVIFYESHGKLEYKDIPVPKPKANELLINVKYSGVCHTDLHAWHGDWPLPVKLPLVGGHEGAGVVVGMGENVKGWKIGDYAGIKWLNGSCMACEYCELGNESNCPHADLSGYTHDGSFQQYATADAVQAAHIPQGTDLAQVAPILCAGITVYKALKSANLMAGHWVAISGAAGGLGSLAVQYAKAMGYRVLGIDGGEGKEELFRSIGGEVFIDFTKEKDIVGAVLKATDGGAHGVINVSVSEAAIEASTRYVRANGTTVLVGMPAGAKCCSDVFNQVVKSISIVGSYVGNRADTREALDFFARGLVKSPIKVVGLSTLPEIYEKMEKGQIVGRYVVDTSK
Experimental: Alcohol [Ethanol] Diagnostic Kit Sigma Diagnostic Kit No. 332-UV Gas Run Protocol
SIGMA Diagnostic Kit 332-BT (Procedure No. 332-UV)
The NAD-ADH vials, when reconstituted according to the directions, contain approximately the following concentrations of active ingredients: NAD, 0.6 μmol/ml, alcohol dehydrogenase [yeast], 50 U/ml, and stabilizers. […]
Step 1: Prepare diluted Ethanol Standard Solution by mixing 4.0 ml Glycine Buffer Reagent (332-9) with 0.5 ml Ethanol Standard Solution (330-20). Cap until ready for use. 4 substrate concentrations: […]
Inject 1×3 cc of gas in silicone-sealed cuvettes No 2nd and 3rd 3 cc gas injection: NAD-ADH solution squirts back in the syringes because of foam formation due to bubbling. Store cuvettes overnight in refrigerator (0°-5° C.) under two 3 cc syringes, in the dark. […]
Remove the G1 cuvettes out from the fridge. Bubble 2×3 cc of gas. Place cuvettes (under two 3 cc syringes filled up with the appropriate gas) in cell holder.
Sample diluted Ethanol Standard Solution with 1 cc syringes, pick syringes into silicone, push plungers simultaneously, run timedrives.
(§1) The following consists of example results obtained from gas runs. Negative numbers indicate an inhibition of the enzyme activity. Positive numbers indicate an enhancement of the enzyme activity

[2] = system: Acid Phosphatase (EC 3.1.3.2); test: Acid Phosphatase Sigma Kit No. 435-A gas run; format: biochemical, Potato; conditions: for rate of the acid phosphatase-catalyzed reaction (FIG. 4): 10° C., saturation with the gas; for % Rate Difference / % Yield Difference: relative to air
Text: Acid Phosphatase Sigma Kit. No. 435-A Gas Run Protocol
(Orthophosphoric-monoester phosphohydrolase [acid optimum)]; EC 3.1.3.2)
From Potato 0.8 Units/mg solid (1 g solid) Lot# 17F-7285
SIGMA Diagnostic Kit 435-A (Procedure No. 435)
PRINCIPLE [drawing 3] Acid phosphatase [ACP] catalyzes the hydrolysis of α-Naphthyl phosphate to a-Naphthol and inorganic phosphate. α-Naphthol immediately reacts with fast red TR salt to produce a yellow chromophore with an absorbance maximum at 405 nm. The rate of increase in absorbance at 405 nm is directly proportional to ACP activity. […]
as §1

Urease EC 3.5.1.5 = target: T2, Urease EC 3.5.1.5 (Canavalia ensiformis, UniProt P07374); test: Urea Nitrogen Diagnostic Kit (640) stop-flow gas run; format: biochemical, jack beans; conditions: 37° C.; relative to air
T2 construct: purchased Sigma 640-5; host or cells: jack beans
Text: Urea Nitrogen Diagnostic Kit (640) Protocol For Gas Run
Urea Nitrogen (Sigma Diagnostic Kit, Procedure No. 640)
Sigma No. 640-5 Buffered Urease from jack beans 100 units when prepared according to directions (3.33 units/ml). Sodium azide added as preservative. Store in refrigerator. Note expiration date: JUNE 1993
PRINCIPLE: Urea is hydrolyzed by urease to ammonia and carbon dioxide. [drawing 6] Ammonia then reacts with alkaline hypochlorite and phenol in the presence of a catalyst, sodium nitroprusside [Na2 Fe[CN]5 NO.2H2 O], to form indophenol. The concentration of ammonia is directly proportional to the absorbance of indophenol, which is measured spectrophotometrically at 570 nm. [drawing 7] Note: Ammonia free water (DI H2 O should be ok) is necessary for this procedure, Make sure to rinse everything with DI H2 O before use, If the blank has more than a trace of blue color ammonia contamination should be suspected.
PROCEDURE FOR STOP-FLOW GAS EXPERIMENT
In a 100 cc serum vial place 20 ml Urease soln (Soln A1). Stopper, seal and crimp. Bubble 400 ml of gas through (using the 500 ml gas-tight syringe). Superimpose 100 ml of gas, vial will be under positive pressure.
Sample 0.4 ml Urea Nitrogen Standard Solution 1 from gassed 3 cc vial. Add to the gassed 100 cc serum vial (containing 20 ml Soln A1). Start stop watch, gently swirl vial.
Take 0.5 ml samples every minute. Place the 0.5 ml sample into the corresponding 10 cc vial to stop the reaction. Inject immediately 1 ml Alkaline Hypochlorite Solution followed by 5 ml D.I. H2 O.
Let the 15×10 cc vials sit and develop color for 30 minutes. a 1 wavelength "scan" (see software) should be run: 3 ml per cuvette. Read vs a blank of 3 ml Soln B.
Spectrophotometric study procedure: 37° C.
as §1

[3] = system: Alkaline Phosphatase (EC 3.1.3.1); test: Alkaline Phosphatase [ALP/AP] Sigma Kit No. 245-10 gas run; format: biochemical, Chicken; design: Rate Difference / Yield Difference: unit not given here; conditions: for rate of the alkaline phosphatase-catalyzed reaction (FIGS. 1-3): 10°, 25° and 35° C., saturation with the gas; for Yield Difference / Rate Difference: relative to air
Text: Alkaline Phosphatase [ALP/AP] Sigma Kit. No. 245-10 Gas Run Protocol
Phosphatase, Alkaline P-8008
(Orthophosphoric-monoester phosphohydrolase [alkaline optimum]; EC 3.1.3.1)
From Chicken Intestine 5.1 Units/mg solid (1 g solid) Lot# 115F-3806
SIGMA Diagnostic Kit 245-10 (Procedure No. 245)
PRINCIPLE [drawing 1] The hydrolysis occurs at alkaline pH. The formation of p-nitrophenol can be observed as an increase in absorbance at 405 nm. The rate of increase directly proportional at ALP activity. […]
as §1

particulate sialidase = conditions: Sandhoff et al 1976; called questionable, highly impure enzymes; cited from earlier work
[4] = independent of oxygen partial pressure; Schreiner; cited from earlier work
[5] = 10 °C, positive = enhancement, negative = inhibition of enzyme activity

T2 sequence (P07374 whole entry, looked up): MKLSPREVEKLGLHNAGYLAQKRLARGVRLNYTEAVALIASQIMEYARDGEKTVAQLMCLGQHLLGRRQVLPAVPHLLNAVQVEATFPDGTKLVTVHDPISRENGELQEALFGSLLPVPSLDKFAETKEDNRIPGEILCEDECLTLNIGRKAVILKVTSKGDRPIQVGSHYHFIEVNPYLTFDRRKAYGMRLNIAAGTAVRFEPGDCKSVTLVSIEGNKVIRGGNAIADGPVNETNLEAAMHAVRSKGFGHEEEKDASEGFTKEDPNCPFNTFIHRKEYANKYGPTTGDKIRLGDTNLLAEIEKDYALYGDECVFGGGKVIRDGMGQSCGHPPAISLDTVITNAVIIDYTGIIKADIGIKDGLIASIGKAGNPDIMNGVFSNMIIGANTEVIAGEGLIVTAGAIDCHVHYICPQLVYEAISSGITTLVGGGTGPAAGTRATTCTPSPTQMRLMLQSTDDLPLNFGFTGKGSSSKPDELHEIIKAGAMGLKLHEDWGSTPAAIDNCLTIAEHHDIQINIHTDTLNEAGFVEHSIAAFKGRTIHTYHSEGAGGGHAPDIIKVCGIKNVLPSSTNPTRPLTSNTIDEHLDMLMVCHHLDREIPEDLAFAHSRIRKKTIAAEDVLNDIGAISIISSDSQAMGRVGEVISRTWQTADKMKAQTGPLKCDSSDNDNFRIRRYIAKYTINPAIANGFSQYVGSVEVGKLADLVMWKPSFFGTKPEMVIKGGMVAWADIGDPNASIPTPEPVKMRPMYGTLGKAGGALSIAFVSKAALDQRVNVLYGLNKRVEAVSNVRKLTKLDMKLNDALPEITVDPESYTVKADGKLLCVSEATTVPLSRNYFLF

Row | Compound | % Rate Difference ([1]; 0.24% Ethanol, 10° C.) [%] | % Yield Difference ([1]; 0.24% Ethanol, 10° C.) [%] | % Rate Difference ([1]; 0.24% Ethanol, 25° C.) [%] | % Yield Difference ([1]; 0.24% Ethanol, 25° C.) [%] | % Rate Difference ([1]; 0.32% Ethanol, 10° C.) [%] | % Yield Difference ([1]; 0.32% Ethanol, 10° C.) [%] | rate of the acid phosphatase-catalyzed reaction (FIG. 4) [2] | % Rate Difference ([2]; 10 °C) [%] | % Yield Difference ([2]; 10 °C) [%] | % Rate Difference ([2]; 25 °C) [%] | % Yield Difference ([2]; 25 °C) [%] | % Rate Difference ([2]; 35 °C) [%] | % Rate Difference (Urease EC 3.5.1.5) [%] | % Yield Difference (Urease EC 3.5.1.5) [%] | Yield Difference ([3]; 10 °C) | Rate Difference [3, 5] | Rate Difference ([3]; 25 °C) | Yield Difference ([3]; 25 °C) | Rate Difference ([3]; 35 °C) | Yield Difference ([3]; 35 °C) | further results
1 | [Ar] [Ar, argon] | 9.0 | 8.3 | -9.4 | -6.6 | 5.2 | 2.3 | improvement of the rate | 8.4 | 9.4 | 12.2 | 9.2 | -1.4 | 9.4 | 9.4 | 33.3 | 33.3 | 3.0 | 3.0 | 30.4 | 30.4 | % Rate Difference ([1]; 0.08% Ethanol, 10° C.): 8.8%; % Yield Difference ([2]; 35 °C): -0.42%; rate of the alkaline phosphatase-catalyzed reaction (FIGS. 1-3) [3]: improvement of the rate
2 | [Kr] [Kr, krypton] | 11.9 | 14.2 | -9.4 | -4.4 | 8.6 | 4.7 | improvement of the rate | 18.1 | 16.0 | 13.3 | 7.3 | 1.4 | 0.0 | 0.0 | 1.7 | 1.7 | 9.1 | 9.1 | 4.3 | 4.3 | % Rate Difference ([1]; 0.08% Ethanol, 10° C.): 2.9%; % Yield Difference ([2]; 35 °C): 1.3%; rate of the alkaline phosphatase-catalyzed reaction (FIGS. 1-3) [3]: improvement of the rate
3 | N#N [N2, Nitrogen, reference compound] |  |  |  |  |  |  |  |  |  |  |  |  | 0.0 |  | 0 | 0 | 0 | 0 | 0 | 0 | 
4 | [Ne] [Ne, neon] |  |  |  |  | 12.1 | 3.9 |  |  |  |  |  |  | 3.1 | 3.1 |  |  |  |  |  |  | 
5 | [Xe] [Xe, xenon] | 7.5 | 10.0 | -10.4 | -8.0 | 15.6 | 10.2 | improvement of the rate | 42.2 | 39.2 | 21.1 | 14.7 | 5.6 | 9.4 | 9.4 | 16.7 | 16.7 | 18.2 | 18.2 | 7.3 | 7.3 | % Yield Difference ([2]; 35 °C): 4.2%; rate of the alkaline phosphatase-catalyzed reaction (FIGS. 1-3) [3]: improvement of the rate; effect on activity of particulate sialidase (particulate sialidase): enhance the activity
6 | FC(F)(F)C(Cl)Br (centres unmarked) [halothane] |  |  |  |  |  |  |  |  |  |  |  |  |  |  |  |  |  |  |  |  | effect on activity of particulate sialidase (particulate sialidase): enhance the activity
7 | [N-]=[N+]=O [nitrous oxide] |  |  |  |  |  |  |  |  |  |  |  |  |  |  |  |  |  |  |  |  | inhibition per atmosphere of added gas [4]: 1.9 % inhibition per atmosphere; effect on activity of particulate sialidase (particulate sialidase): enhance the activity
